In ChEMBL document CHEMBL3992495, “Aliphatic and alicyclic camphor imines as effective inhibitors of influenza virus H1N1” (Eur J Med Chem, 2017):
Where a name gives a salt, the structure may show the parent alone.

Assays:
[1] = Antiviral activity against Influenza A virus (A/California/07/09(H1N1)) infected in MDCK cells assessed as inhibition of viral replication after 48 hrs by hemagglutination test; assay type: functional, Influenza A virus (A/California/07/2009(H1N1)); details: read-out: ED50 (the source's name)
[2] = Cytotoxicity against MDCK cells after 48 hrs by MTT assay; assay type: cell-based, Canis lupus familiaris; details: dog, read-out: CTD50
[3] = tested on: Influenza A virus (A/Puerto Rico/8/34(H1N1)); test: Selectivity index, ratio of CTD50 for MDCK cells to ED50 for Influenza A virus (A/Puerto Rico/8/34(H1N1)); assay type: toxicity; details: dog, read-out: Selectivity Index
[4] = tested on: Influenza A virus (A/California/07/09(H1N1)); test: Selectivity index, ratio of CTD50 for MDCK cells to ED50 for Influenza A virus (A/California/07/09(H1N1)); assay type: toxicity; details: dog, read-out: Selectivity Index
Influenza A virus = test: Antiviral activity against Influenza A virus (A/Puerto Rico/8/34(H1N1)) infected in MDCK cells assessed as inhibition of viral replication after 48 hrs by hemagglutination test; assay type: functional; details: A/Puerto Rico/8/1934(H1N1), read-out: ED50 (the source's name)

CC1(C)[C@@H]2CC[C@@]1(C)/C(=N/C1CC1)C2
EC50 ([1]; Influenza A virus, MDCK, 48 h): 592 µM
CC50 at 48 h [2]: 1660 µM
selectivity ratio [3]: 2
selectivity ratio [4]: 3
EC50 (Influenza A virus): 738 µM

CCCCCCCC/N=C1\C[C@H]2CC[C@]1(C)C2(C)C
EC50 ([1]; Influenza A virus, MDCK, 48 h): 64.6 µM
CC50 at 48 h [2]: 97.3 µM
selectivity ratio [3]: 10
selectivity ratio [4]: 2
EC50 (Influenza A virus): 9.9 µM

CCCCCCCCCC/N=C1\C[C@H]2CC[C@]1(C)C2(C)C
EC50 ([1]; Influenza A virus, MDCK, 48 h): 17.2 µM
CC50 at 48 h [2]: 50.9 µM
selectivity ratio [3]: 5
selectivity ratio [4]: 3
EC50 (Influenza A virus): 10.3 µM

CCCCC/N=C1\C[C@H]2CC[C@]1(C)C2(C)C
EC50 ([1]; Influenza A virus, MDCK, 48 h): 7.7 µM
CC50 at 48 h [2]: 801 µM
selectivity ratio [3]: 66
selectivity ratio [4]: 104
EC50 (Influenza A virus): 12.2 µM

NC12CC3CC(CC(C3)C1)C2 [AMANTADINE]
EC50 ([1]; Influenza A virus, MDCK, 48 h): 64.2 to 70 µM
CC50 at 48 h [2]: 280 to 284 µM
selectivity ratio [3]: 4
selectivity ratio [4]: 4
EC50 (Influenza A virus): 72.8 µM

CCCCCCC/N=C1\C[C@H]2CC[C@]1(C)C2(C)C
EC50 ([1]; Influenza A virus, MDCK, 48 h): 1.4 µM
CC50 at 48 h [2]: 234 µM
selectivity ratio [3]: 49
selectivity ratio [4]: 171
EC50 (Influenza A virus): 4.8 µM

CC12CCC(CC1=O)C2(C)C (centres undefined) [CAMPHOR]
EC50 [1]: 1640 µM
selectivity ratio [3]: 2
selectivity ratio [4]: 2
EC50 (Influenza A virus): 1450 µM

CCC/N=C1\C[C@H]2CC[C@]1(C)C2(C)C
EC50 ([1]; Influenza A virus, MDCK, 48 h): 19.7 µM
CC50 at 48 h [2]: > 2590 µM
selectivity ratio [3]: > 632
selectivity ratio [4]: > 131
EC50 (Influenza A virus): 4.1 µM

CC1(C)[C@@H]2CC[C@@]1(C)/C(=N/C1CCCCC1)C2
EC50 ([1]; Influenza A virus, MDCK, 48 h): 55.4 µM
CC50 at 48 h [2]: > 1290 µM
selectivity ratio [3]: > 83
selectivity ratio [4]: > 23
EC50 (Influenza A virus): 15.5 µM

CC1(C)[C@@H]2CC[C@@]1(C)/C(=N/CCO)C2
EC50 ([1]; Influenza A virus, MDCK, 48 h): 5 µM
CC50 at 48 h [2]: 2500 µM
selectivity ratio [4]: 500

CCCC/N=C1\C[C@H]2CC[C@]1(C)C2(C)C
EC50 ([1]; Influenza A virus, MDCK, 48 h): 7.7 µM
CC50 at 48 h [2]: 2420 µM
selectivity ratio [3]: 417
selectivity ratio [4]: 312
EC50 (Influenza A virus): 5.8 µM

CCCCCCCCCCCC/N=C1\C[C@H]2CC[C@]1(C)C2(C)C
EC50 ([1]; Influenza A virus, MDCK, 48 h): 15.7 µM
CC50 at 48 h [2]: 62.1 µM
selectivity ratio [3]: < 2
selectivity ratio [4]: 4
EC50 (Influenza A virus): > 37.6 µM

CC(N)[C@@H]1C[C@H]2CC[C@@H]1C2 (some centres undefined)
EC50 ([1]; Influenza A virus, MDCK, 48 h): 206 to 209 µM
CC50 at 48 h [2]: 1260 to 1270 µM
EC50 (Influenza A virus): 230 µM

CCCCCCCCCCCCCCCCCC/N=C1\C[C@H]2CC[C@]1(C)C2(C)C
EC50 ([1]; Influenza A virus, MDCK, 48 h): 744 µM
CC50 at 48 h [2]: > 744 µM
selectivity ratio [3]: < 1
selectivity ratio [4]: > 1
EC50 (Influenza A virus): > 744 µM

CCCCCC/N=C1\C[C@H]2CC[C@]1(C)C2(C)C
EC50 ([1]; Influenza A virus, MDCK, 48 h): 26 µM
CC50 at 48 h [2]: 468 µM
selectivity ratio [3]: 16
selectivity ratio [4]: 18
EC50 (Influenza A virus): 29.8 µM

CC(N)C12CC3CC(CC(C3)C1)C2 (centres undefined) [RIMANTADINE HYDROCHLORIDE]
EC50 ([1]; Influenza A virus, MDCK, 48 h): 67 µM
selectivity ratio [3]: 4
selectivity ratio [4]: 5
EC50 (Influenza A virus): 83.8 µM
